pIC50: −log10 of the molar value.

Test [1] has as its system hyaluronidase de testicules bovins. As to the kind of experiment: Affinity by binding, ultrafiltration and UPLC-MS (Example 5). Particulars: chromatogram B, figure 3. As for the experimental part: (§1) Une solution de travail de hyaluronidase de testicules bovins à 5 mg/mL est préparée en dissolvant de la poudre de l'enzyme lyophilisée dans un tampon phosphate salin à 50 mM, avec un pH de 7,0. Une solution de travail de trypsine (la cible témoin) est préparée de la même manière que celle de hyaluronidase. L'échantillon est préparé en utilisant l'un des solvants suivants : des glycols, DMSO (diméthylsulfoxide), l'éthanol pur ou en solution dans l'eau. La concentration dans l'échantillon de ligand initial doit être dans la gamme de 0,75 à 1 mM. Le ligand choisi (quercétine) est un inhibiteur connu de l'hyaluronidase (Asian J. Chem. 2013, 25, 10262-10266). Un échantillon de référence est préparé également en diluant l'échantillon de 10 à 20 fois dans une solution de trois quarts de volume d'acétonitrile et d'un quart de volume d'eau. […]

Test [2] relates to trypsine. As to the kind of experiment: Affinity by binding, ultrafiltration and UPLC-MS, control target (Example 5). Particulars: chromatogram C, figure 3. As for the experimental part:
as §1

The subject of test [3] is trypsine. The conditions noted are these: 2660 µM; International Journal of Food Science & Technology 2014, 49, 1063-1069; cited from earlier work.
The next test deals with hyaluronidase. Particulars: 200 µM; Asian J. Chem. 2013, 25, 10262-10266; cited from earlier work.
The subject of a further test is tyrosinase de champignon. As to the kind of experiment: Relative affinity by competitive binding, ultrafiltration and UPLC-MS/UV (Example 1). The conditions noted are these: equimolar ligands. As for the experimental part:
Une solution de travail de tyrosinase de champignon à 1.25 mg/mL est préparée en dissolvant de la poudre de l'enzyme lyophilisée dans 50 mM d'acétate d'ammonium, avec un pH de 7.0. L'échantillon est préparé en utilisant l'un des solvants suivants : des glycols, DMSO (diméthylsulfoxide), l'éthanol, pur ou en solution dans l'eau. La concentration dans l'échantillon des ligands initiaux est équimolaire et doit être dans la gamme de 0,75 à 1 mM. Les ligands choisis étaient des inhibiteurs connus de la tyrosinase isolés depuis des racines de murier noir (Morus nigra) : la moracénine A, moracénine B et la kuwanone C. Un échantillon de référence est préparé également en diluant l'échantillon de 10 à 20 fois dans une solution d'eau et d'un quart de volume d'acétonitrile.
• 1. Étape de préconditionnement - Des puits à membrane filtrante sont pré-conditionnées avec un volume de 500 µl d'une solution à 85% d'acétate d'ammonium et 15% d'éthanol qui est passé à travers la membrane avec une centrifugation de 14000 g pendant 60 secondes. • 2. Étape de liaison - La préparation de tyrosinase (1.25 mg/mL, 75 µL) est mélangée avec 5 µl de l'échantillon dans un tube d'Eppendorf en plastique, puis est incubée pendant 5 min. Dans ce mélange, on a 9,16 µM de tyrosinase et une gamme de 46,88 µM à 62,5 µM de ligands (moracénine A, moracénine B et kuwanone C) soit un ratio ligands/cible allant de 5,12 à 6,83. • 3. Étape de lavage - le mélange de l'enzyme et de l'échantillon est déposé dans un puits préconditionné à l'étape de préconditionnement, puis centrifugé à 14000 g jusqu'à l'élimination de l'essentiel du solvant. Les complexes enzyme-ligands restent à la surface de la membrane du filtre puis sont à nouveau suspendu dans un volume de 100 µL de la même solution à 85% d'acétate d'ammonium et 15% d'éthanol et centrifugé à 14000 g jusqu'à élimination du solvant. Cette procédure est répétée trois fois et élimine tous les composés qui ne sont pas liés à l'enzyme. • 4. Étape de séparation - Les complexes enzyme-ligands retenus dans le filtre sont à nouveau suspendus dans un volume de 10 µL d'eau ultra-pure, puis sont mélangés avec un volume de 40 µL d'acétonitrile pour dénaturer et précipiter l'enzyme et, en même temps libérer les ligands. Le mélange est centrifugé à 21000 g pendant 10 min pour séparer le précipité du surnageant. • 5. Étape d'analyse - Ledit surnageant formant la solution traitée est analysé par chromatographie en phase liquide couplée à une spectrométrie de masse, connue également par l'acronyme UPLC-MS. L'échantillon de référence est analysé également de la même manière, en utilisant les mêmes conditions d'analyse. Les affinités relatives sont calculées selon la méthode décrite ci-après. De préférence, l'échantillon de référence et la solution traitée sont analysés séquentiellement pour éliminer des dispersions dues aux réglages de l'appareillage.
Une analyse par chromatographie en phase liquide fournit un chromatogramme tel que montré par les figures 1 et 2. Le chromatogramme représente une intensité de signal en fonction du temps de rétention dans une colonne. Le signal présente différents pics d'intensité variable. Chaque pic est associé à l'un des ligands présent dans l'échantillon et la solution traitée. • 1. Normalisation de l'intensité du signal analytique pour les ligands dans l'échantillon de référence. Pour chaque chaque ligand CEi dans l'échantillon de référence, on établit des facteurs de normalisation NFeq dudit ligand CEi par comparaison au ligand de référence REF, selon l'équation suivante : NFeq,CEi = (ISeq,CEi)/(ISeq,REF) [formula] où : • NF est un facteur de normalisation; • ISeq,CEi est l'intensité du signal analytique pour le ligand CEi dans l'échantillon; • ISeq,REF est l'intensité du signal analytique pour le ligand de référence REF dans l'échantillon. L'intensité peut être choisie parmi l'aire du pic ou la valeur maximale du pic. Le facteur de normalisation du ligand de référence vaut toujours 1. • 2. […]

Another test addresses tyrosinase. The conditions noted are these: literature values, 50% reduction of enzyme activity; cited from earlier work.

Regarding `O=c1c(O)c(-c2ccc(O)c(O)c2)oc2cc(O)cc(O)c12` [quercétine], the affinité entry is given as “affinité importante” in test [1] and “très faible affinité” in the test with trypsine [2]. The “inhibition de la trypsine” value in the test on trypsine [3] is 46%. Further, the “inhibition de l'hyaluronidase” value in the test with hyaluronidase is 54%.
moracénine A: the “Facteur de normalisation, solution traitée” value with tyrosinase de champignon (NFTB, peak area UV 270 nm relative to reference ligand moracénine B) is 1,29. Besides, the Affinités relatives in the test with tyrosinase de champignon (RA = NFTB/NFeq, reference ligand moracénine B) was 1,50. Besides, the pIC50 on tyrosinase was 4.99.

The pIC50 is −log10 of the IC50, conventionally taken in molar units.

The values are drawn from patent publication EP3516395B1, “METHOD FOR DETERMINING AFFINITY BETWEEN LIGANDS AND A TARGET” (Plant Advanced Technologies Pat, priority 2016, dated 2018).
